From US20010048946A1, “SOLID PHARMACEUTICAL DOSAGE FORMS IN FORM OF A PARTICULATE DISPERSION” (priority 1997, published 2001)

Tests used:
[1] = Dissolution testing, USP apparatus II, 900 mL medium, 37° C., 75 rpm; format: physicochemical; conditions: 100 mg CI-991
Description: (0.1 M) Phosphate solution was prepared by dissolving a calculated amount of Na2HPO4 in USP water. The pH-value of the (0.1 M) phosphate solution was then adjusted to 8.0±0.02 by 85% phosphoric acid to give a pH 8 (0.1 M) phosphate buffer. An appropriate amount of SLS was added and dissolved in the pH 8 (0.1 M) phosphate buffer to give the pH 8 (0.1 M) phosphate buffer containing 0.5% (g/mL) SLS.
(0.05 M) Phosphate solution was prepared by mixing 1:1 ratio of the aqueous solutions of (0.025 M) Na2HPO4 and (0.025 M) K2HPO4. The pH value of the (0.05 M) phosphate solution was then adjusted to 9.0±0.02 by 85% phosphoric acid to give the pH 9 (0.05 M) phosphate buffer.
The dissolution studies were conducted in 900 mL of dissolution medium maintained at 37° C., using USP apparatus II (Distek 2100A dissolution system, North Brunswick, N.J.) at 75 rpm of paddle speed. After dispersing a sample containing 100 mg of CI-991 into the dissolution medium, about 10 mL of solutions were periodically sampled and filtered by Gelman Nylon Acrodisc 0.45 μm filters to give clear filtrates (discard the first 2 mL filtrate). The extent of the drug dissolved in the dissolution medium was determined by UV spectrometry at λ=284 nm. Interference by the excipients was not observed during analysis. Experiments were run in duplicate, and the results were averaged.

[2] = gastrointestinal pH range of 1.0 to 7.5; cited from earlier work
[3] = pH 8 (0.1 M) phosphate buffer containing 0.5% SLS

Cc1c(C)c2c(c(C)c1O)CCC(C)(COc1ccc(CC3SC(=O)NC3=O)cc1)O2 (stereo not shown) [CI-991 Pure Drug, Troglitazone]
Percent of CI-991 Dissolved in Solution at 5 min [1, 3]: 3.9 ± 0.1% | Percent of CI-991 Dissolved in Solution at 10 min [1, 3]: 6.3 ± 0.1% | Percent of CI-991 Dissolved in Solution at 15 min [1, 3]: 8.2 ± 0.1% | Percent of CI-991 Dissolved in Solution at 5 min ([1]; pH 9 (0.05 M) phosphate buffer): 0.5 ± 0.1% | Percent of CI-991 Dissolved in Solution at 10 min ([1]; pH 9 (0.05 M) phosphate buffer): 0.4 ± 0.1% | Percent of CI-991 Dissolved in Solution at 15 min ([1]; pH 9 (0.05 M) phosphate buffer): 1.2 ± 0.2% | water solubility (in words) [2]: practically water-insoluble
